The record followed here is EP4610269A1, “UROKINASE PLASMINOGEN ACTIVATOR SURFACE RECEPTOR (UPAR) LIGANDS FOR DIAGNOSTIC OR THERAPEUTIC USE” (3B Pharmaceuticals GmbH, priority 2024, dated 2025).

In test [1] the target is T1, uPAR-expressing HEC-265 human endometrial adenocarcinoma cells (Homo sapiens, UniProt Q03405).
T1 construct: Cell surface uPAR-expressing HEC-265 human endometrial adenocarcinoma cells; host or cells: HEC-265
The test can be described thus: Competitive FACS binding assay. Conditions: pIC50 category of FACS binding. In outline: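 Competitive displacement of a 10 nM biotinylated peptide from HEC-265 cells (1 h, 4 °C, PBS/1% BSA), detected via APC-streptavidin by flow cytometry. pIC50 from four-parameter logistic fit of median fluorescence versus concentration.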
Background: In flow cytometry, cells or beads pass a laser one at a time.

Test [2] has as its target T2, human uPAR (uPAR-Fc) (Homo sapiens, UniProt Q03405).
T2 construct: comprising amino acids Leu23-Arg303 according to UniProt entry Q03405.1; purchased R&D Systems 10378-UK-100
The test can be described thus: Surface plasmon resonance (SPR) assay, single cycle kinetics. It counts as binding. Conditions: pKD category for uPAR SPR activity assay; uPAR-Fc on Protein A-Chip, single cycle kinetics, 25°C; read-out: pKD CAT (converted). Put shortly: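 uPAR-Fc (Leu23-Arg303 extracellular domains, human IgG1 Fc) captured on Protein A chip to ~2000 RU; single-cycle kinetics at 25°C in HEPES running buffer pH 7.4 with 0.1% DMSO. KD from double-referenced sensorgrams fitted to 1:1 Langmuir model, reported as pKD.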

Where a SMILES comes first, the peptide text is derived from it. Bridges are numbered along the chain shown (N, C = ends). Side-chain parts run from the residue outwards. [ ]: non-standard residue; d: D form. The star is where a group is joined. DOTA = O=C(O)CN1CCN(CC(=O)O)CCN(CC(=O)*)CCN(CC(=O)O)CC1; Pro(cis-4-F) = O=C(O)[C@@H]1C[C@H](F)CN1; Dopa = N[C@@H](Cc1ccc(O)c(O)c1)C(=O)O; Hyp = O=C(O)[C@@H]1C[C@@H](O)CN1; hPhe = N[C@@H](CCc1ccccc1)C(=O)O; Pentanoyl(4-Me) = CC(C)CCC(=O)*; Cha = N[C@@H](CC1CCCCC1)C(=O)O; Cit = NC(=O)NCCC[C@H](N)C(=O)O; Butoxycarbonyl = CCCCOC(=O)*; NMeV = CN[C@H](C(=O)O)C(C)C; Pip = O=C(O)[C@@H]1CCCCN1; Dab = NCC[C@H](N)C(=O)O; Nva = CCC[C@H](N)C(=O)O; Dap = NC[C@H](N)C(=O)O; Pentanoyl = CCCCC(=O)*; Aib = CC(C)(N)C(=O)O; NEtG = CCNCC(=O)O A value given as a limit tells only on which side of the number the result lay.

T2 sequence (Q03405 23-303): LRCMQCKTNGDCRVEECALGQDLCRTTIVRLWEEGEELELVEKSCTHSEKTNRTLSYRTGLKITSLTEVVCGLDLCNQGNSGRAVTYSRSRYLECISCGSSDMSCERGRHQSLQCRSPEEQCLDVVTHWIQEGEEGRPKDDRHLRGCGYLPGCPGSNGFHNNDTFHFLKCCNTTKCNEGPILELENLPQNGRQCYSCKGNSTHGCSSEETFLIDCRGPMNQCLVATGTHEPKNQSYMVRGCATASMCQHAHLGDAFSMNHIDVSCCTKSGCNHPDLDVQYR
T1 sequence (Q03405 23-335): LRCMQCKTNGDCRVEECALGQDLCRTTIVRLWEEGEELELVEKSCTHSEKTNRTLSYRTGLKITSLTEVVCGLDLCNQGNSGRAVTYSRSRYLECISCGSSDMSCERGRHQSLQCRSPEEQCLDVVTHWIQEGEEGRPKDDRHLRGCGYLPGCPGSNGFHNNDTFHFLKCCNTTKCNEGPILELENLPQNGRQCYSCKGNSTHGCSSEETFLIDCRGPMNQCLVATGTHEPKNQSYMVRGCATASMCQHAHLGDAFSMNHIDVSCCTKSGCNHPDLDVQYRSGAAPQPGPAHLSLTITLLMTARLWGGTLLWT

Regarding `CCCCC(=O)N[C@H]1CSSC[C@@H](C(N)=O)NC(=O)[C@H](CCC)NC(=O)[C@H]([C@@H](C)CC)NC(=O)[C@@H]2C[C@@H](O)CN2C(=O)[C@@H]2CCCN2C(=O)[C@H](Cc2ccccc2)NC(=O)[C@H](Cc2ccc(O)cc2)NC(=O)[C@H](CCC(N)=O)NC(=O)[C@H](Cc2ccc(O)cc2)NC1=O` [UPAR-454, Pent-[Cys-Tyr-Gln-Tyr-Phe-Pro-Hyp-Ile-Nva-Cys]-NH2] (Pentanoyl-CYQYFP[Hyp]I[Nva]C-NH2; disulfide 1-10), the IC50 (usually the concentration that inhibits the measured activity by half) in test [1] is not above 10 nM. In test [2], the Kd is less than 1.58 nM.
Regarding `CCCCOC(=O)N[C@H]1CSSC[C@@H](C(N)=O)NC(=O)[C@H](CCC)NC(=O)[C@H]([C@@H](C)CC)NC(=O)[C@@H]2C[C@@H](O)CN2C(=O)[C@@H]2C[C@H](F)CN2C(=O)[C@H](Cc2ccccc2)NC(=O)[C@H](Cc2ccc(O)cc2)NC(=O)[C@H](CNC(=O)CN2CCN(CC(=O)O)CCN(CC(=O)O)CCN(CC(=O)O)CC2)NC(=O)[C@H]([C@@H](C)O)NC1=O` [UPAR-455, Butoc-[Cys-Thr-Dap(DOTA)-Tyr-Phe-4Cfp-Hyp-Ile-Nva-Cys]-NH2] (Butoxycarbonyl-CT[Dap](DOTA)YF[Pro(cis-4-F)][Hyp]I[Nva]C-NH2; disulfide 1-10), in test [1], the IC50 was not above 10 nM. The Kd in test [2] was less than 1.58 nM.
For the compound `CCCCOC(=O)N[C@H]1CSSC[C@@H](C(N)=O)NC(=O)[C@H](CCC)NC(=O)[C@H]([C@@H](C)CC)NC(=O)[C@@H]2C[C@@H](O)CN2C(=O)[C@@H]2C[C@H](F)CN2C(=O)[C@H](Cc2ccccc2)NC(=O)[C@H](Cc2ccc(O)c(O)c2)NC(=O)[C@H](CCNC(=O)CN2CCN(CC(=O)O)CCN(CC(=O)O)CCN(CC(=O)O)CC2)NC(=O)[C@H]([C@@H](C)O)NC1=O` [UPAR-456, Butoc-[Cys-Thr-Dab(DOTA)-Dopa-Phe-4Cfp-Hyp-Ile-Nva-Cys]-NH2] (Butoxycarbonyl-CT[Dab](DOTA)[Dopa]F[Pro(cis-4-F)][Hyp]I[Nva]C-NH2; disulfide 1-10), the half-inhibitory concentration (IC50) in test [1] is not above 10 nM. The Kd in test [2] is less than 1.58 nM.
With `CC[C@H](C)[C@@H]1NC(=O)[C@@H]2C[C@@H](O)CN2C(=O)[C@@H]2CCCN2C(=O)[C@H](Cc2ccccc2)NC(=O)[C@H](Cc2ccc(O)cc2)NC(=O)[C@H](CC(=O)O)NC(=O)[C@H](CCCNC(=N)N)NC(=O)[C@@H](NC(=O)CCC(C)C)CSSC[C@@H](C(N)=O)NC(=O)[C@H](CC(C)C)NC1=O` [UPAR-458, iHex-[Cys-Arg-Asp-Tyr-Phe-Pro-Hyp-Ile-Leu-Cys]-NHz] ({Pentanoyl(4-Me)}-CRDYFP[Hyp]ILC-NH2; disulfide 1-10), the IC50 in test [1] is not above 10 nM. Besides, the Kd in test [2] was less than 1.58 nM.
`CCCCOC(=O)N[C@H]1CSSC[C@@H](C(N)=O)NC(=O)[C@H](CCC)NC(=O)[C@H]([C@@H](C)CC)NC(=O)[C@@H]2C[C@@H](O)CN2C(=O)[C@@H]2C[C@H](F)CN2C(=O)[C@H](Cc2ccccc2)NC(=O)[C@H](Cc2ccc(O)c(O)c2)NC(=O)[C@H](CCCCNC(=O)[C@@H](CC(=O)O)NC(=O)CN2CCN(CC(=O)O)CCN(CC(=O)O)CCN(CC(=O)O)CC2)NC(=O)[C@H]([C@@H](C)O)NC1=O` [UPAR-459, Butoc-[Cys-Thr-Lys(DOTA-asp)-Dopa-Phe-4Cfp-Hyp-Ile-Nva-Cys]-NH2] (Butoxycarbonyl-CTK([dD-DOTA])[Dopa]F[Pro(cis-4-F)][Hyp]I[Nva]C-NH2; disulfide 1-10) gave an IC50 in test [1] not above 10 nM. For the same compound, in test [2], the Kd is less than 1.58 nM.
In turn, `CCCCC(=O)N[C@H]1CSSC[C@@H](C(N)=O)NC(=O)[C@H](CCC)NC(=O)[C@H](CCc2ccccc2)NC(=O)[C@@H]2C[C@@H](O)CN2C(=O)[C@@H]2CCCN2C(=O)[C@H](Cc2ccccc2)NC(=O)[C@H](Cc2ccc(O)cc2)NC(=O)[C@H](CCC(N)=O)NC(=O)[C@H](CCCNC(=N)N)NC1=O` [UPAR-461, Pent-[Cys-Arg-Gln-Tyr-Phe-Pro-Hyp-Hfe-Nva-Cys]-NH2] (Pentanoyl-CRQYFP[Hyp][hPhe][Nva]C-NH2; disulfide 1-10) had a half-maximal inhibitory concentration (IC50) in test [1] not above 10 nM. Further, the Kd in test [2] is less than 1.58 nM.
In the case of `CCNCC(=O)N[C@H]1CSSC[C@@H](C(N)=O)NC(=O)[C@H](CC(C)C)NC(=O)[C@H]([C@@H](C)CC)NC(=O)[C@@H](C)NC(=O)[C@@H]2CCCN2C(=O)[C@H](Cc2ccccc2)NC(=O)[C@H](Cc2ccc(O)cc2)NC(=O)[C@H](CCC(N)=O)NC(=O)[C@H](CCCNC(N)=O)NC1=O` [UPAR-462, H-NEtg-[Cys-Cit-Gln-Tyr-Phe-Pro-ala-Ile-Leu-Cys]-NH2] (H-[NEtG]C[Cit]QYFP[dA]ILC-NH2; disulfide 2-11), the half-inhibitory concentration (IC50) in test [1] was 39.8 to 100 nM. Further, the Kd in test [2] was 10 to 100 nM.
With `CCCCC(=O)N[C@H]1CSSC[C@@H](C(N)=O)NC(=O)[C@H](CCC)NC(=O)[C@H]([C@@H](C)CC)NC(=O)[C@@H](Cc2ccc(O)cc2)NC(=O)[C@@H]2CCCN2C(=O)[C@H](Cc2ccccc2)NC(=O)[C@H](Cc2ccc(O)cc2)NC(=O)[C@H](CCC(N)=O)NC(=O)[C@H](CCCNC(=N)N)NC1=O` [UPAR-465, Pent-[Cys-Arg-Gln-Tyr-Phe-Pro-tyr-Ile-Nva-Cys]-NH2] (Pentanoyl-CRQYFP[dY]I[Nva]C-NH2; disulfide 1-10), the concentration for half-maximal inhibition (IC50) in test [1] is not above 10 nM. Moreover, the Kd in test [2] was less than 1.58 nM.
Regarding `CC[C@H](C)[C@@H]1NC(=O)[C@@H](C)NC(=O)[C@@H]2CCCN2C(=O)[C@H](Cc2ccccc2)NC(=O)[C@H](Cc2ccc(O)cc2)NC(=O)[C@H](CCC(N)=O)NC(=O)[C@@H](CCCNC(=N)N)NC(=O)[C@@H](NC(=O)CCC(C)C)CSSC[C@@H](C(N)=O)NC(=O)[C@H](CC(C)C)NC1=O` [UPAR-467, iHex-[Cys-arg-Gln-Tyr-Phe-Pro-ala-Ile-Leu-Cys]-NH2] ({Pentanoyl(4-Me)}-C[dR]QYFP[dA]ILC-NH2; disulfide 1-10), the IC50 in test [1] was not below 126 nM. The Kd in test [2] is 10 to 100 nM.
In the same order, the values of `CC[C@H](C)[C@@H]1NC(=O)[C@@H](C)NC(=O)[C@@H]2CCCN2C(=O)[C@H](Cc2ccccc2)NC(=O)[C@H](Cc2ccc(O)cc2)NC(=O)[C@H](CCC(N)=O)NC(=O)C(C)(C)NC(=O)[C@@H](NC(=O)CCC(C)C)CSSC[C@@H](C(N)=O)NC(=O)[C@H](CC(C)C)NC1=O` [UPAR-468, iHex-[Cys-Aib-Gln-Tyr-Phe-Pro-ala-Ile-Leu-Cys]-NH2] ({Pentanoyl(4-Me)}-C[Aib]QYFP[dA]ILC-NH2; disulfide 1-10) are not above 10 nM and 1.58 to 10 nM.
Take `CC[C@H](C)[C@@H]1NC(=O)[C@@H]2CCCCN2C(=O)[C@@H]2CCCN2C(=O)[C@H](Cc2ccccc2)NC(=O)[C@H](Cc2ccc(O)cc2)NC(=O)[C@H](CCC(N)=O)NC(=O)[C@H](CCCNC(N)=O)NC(=O)[C@@H](NC(=O)CCC(C)C)CSSC[C@@H](C(N)=O)NC(=O)[C@H](CC(C)C)NC1=O` [UPAR-469, iHex-[Cys-Cit-Gln-Tyr-Phe-Pro-Pip-Ile-Leu-Cys]-NH2] ({Pentanoyl(4-Me)}-C[Cit]QYFP[Pip]ILC-NH2; disulfide 1-10): the IC50 in test [1] is 12.6 to 31.6 nM. The Kd in test [2] was 1.58 to 10 nM.
In turn, `CCCCC(=O)N[C@H]1CSSC[C@@H](C(N)=O)NC(=O)[C@H](CCC)NC(=O)[C@H]([C@@H](C)CC)NC(=O)[C@@H]2C[C@@H](O)CN2C(=O)[C@H](C(C)C)N(C)C(=O)[C@H](Cc2ccccc2)NC(=O)[C@H](Cc2ccc(O)cc2)NC(=O)[C@H](CCC(N)=O)NC(=O)[C@H](CCCNC(=N)N)NC1=O` [UPAR-470, Pent-[Cys-Arg-Gln-Tyr-Phe-Nmv-Hyp-Ile-Nva-Cys]-NH2] (Pentanoyl-CRQYF[NMeV][Hyp]I[Nva]C-NH2; disulfide 1-10) showed an IC50 in test [1] not below 126 nM. In addition, the Kd in test [2] is more than 100 nM.
`CCCCC(=O)N[C@H]1CSSC[C@@H](C(N)=O)NC(=O)[C@H](CCC)NC(=O)[C@H]([C@@H](C)CC)NC(=O)[C@@H]2C[C@@H](O)CN2C(=O)[C@@H]2CCCN2C(=O)[C@H](Cc2ccccc2)NC(=O)[C@H](Cc2ccc(O)cc2)NC(=O)[C@H](CCCCNC(=O)CN2CCN(CC(=O)O)CCN(CC(=O)O)CCN(CC(=O)O)CC2)NC(=O)[C@H](CCC(=O)O)NC1=O` [UPAR-471, Pent-[Cys-Glu-Lys(DOTA)-Tyr-Phe-Pro-Hyp-Ile-Nva-Cys]-NH2] (Pentanoyl-CEK(DOTA)YFP[Hyp]I[Nva]C-NH2; disulfide 1-10) gave an IC50 in test [1] not above 10 nM. In test [2], the Kd is less than 1.58 nM.
In the case of `CCCCC(=O)N[C@H]1CSSC[C@@H](C(N)=O)NC(=O)[C@H](CCC)NC(=O)[C@H]([C@@H](C)CC)NC(=O)[C@@H]2CCCN2C(=O)[C@@H]2CCCN2C(=O)[C@H](Cc2ccccc2)NC(=O)[C@H](Cc2ccc(O)cc2)NC(=O)[C@H](CCCCNC(=O)CN2CCN(CC(=O)O)CCN(CC(=O)O)CCN(CC(=O)O)CC2)NC(=O)[C@H](CCCNC(N)=O)NC1=O` [UPAR-473, Pent-[Cys-Cit-Lys(DOTA)-Tyr-Phe-Pro-Pro-Ile-Nva-Cys]-NH2] (Pentanoyl-C[Cit]K(DOTA)YFPPI[Nva]C-NH2; disulfide 1-10), the half-inhibitory concentration (IC50) in test [1] was not above 10 nM. Besides, the Kd in test [2] was less than 1.58 nM.
As for `CC[C@H](C)[C@@H]1NC(=O)[C@@H](C)NC(=O)[C@@H]2CCCN2C(=O)[C@H](Cc2ccccc2)NC(=O)[C@H](Cc2ccc(O)cc2)NC(=O)[C@H](CCC(N)=O)NC(=O)[C@H](CCCNC(N)=O)NC(=O)[C@@H](NC(=O)CCC(C)C)CSSC[C@@H](C(N)=O)NC(=O)[C@H](CC2CCCCC2)NC1=O` [UPAR-474, iHex-[Cys-Cit-Gln-Tyr-Phe-Pro-ala-Ile-Cha-Cys]-NH2] ({Pentanoyl(4-Me)}-C[Cit]QYFP[dA]I[Cha]C-NH2; disulfide 1-10), the IC50 in test [1] is not below 126 nM. Also, the Kd in test [2] was more than 100 nM.
